According to patent US10092526B2, “Compositions and methods for treating respiratory injury or disease” (University of Pittsburgh—Of the Commonwealth System of …, priority 2013, dated 2018):
Values after ≈ are worked out from the molar mass of the structure shown. Read-outs that look alike come from different tables or passages of the source.

Tests used:
TNFα cytokine release = assay: LPS-induced TNFα cytokine release in PBMC (ELISA); assay type: cell-based; details: LPS 50 ng/ml, 16 hours, TNFα release by ELISA
Procedure: Peripheral blood mononuclear cells (PBMC) (0.2 ml at 0.3×10^6/ml) were treated with lipopolysaccharide (LPS) (50 ng/ml) for 16 hours concurrently with each compound tested at different concentrations. TNFα cytokine release was monitored by ELISA. These concentrations were used to calculate the IC50.

[1] = U937 monocyte cytotoxicity, Trypan blue staining; assay type: cell-based; details: human
Procedure: (§1) U937 monocytes (0.2 ml at 0.3 x 10^6/ml) were treated with each compound at different concentrations for 16 hours. The cells were then stained with Trypan blue to identify dead cells, and to calculate the LC50. Combined values were used to generate therapeutic indexes (TI)=LC50/IC50.

U937 monocytes = assay: U937 monocyte cytotoxicity, Trypan blue staining; assay type: cell-based
Procedure: as §1

IL1β = assay: IC50IL1β measurements (FIG. 1); assay type: cell-based
[2] = system: lung transplant rejection; assay: Lung transplant acute rejection model (Example 9); assay type: in vivo, mouse; details: 5 mg/kg/d i.p. 2 days then drinking water 5 mg/kg/d 5 days
Procedure: Left lung from BALB/C mouse was surgically removed and transplanted into C57/BL mouse. Mice were given vehicle or BC-1261 (5 mg/kg/d i.p. injection) for 2 days until fully recovered. After that, BC-1261 (also referred to herein as compound 014) was administered through drinking water (5 mg/kg/d) for additional 5 days. Mice were then sacrificed, and the transplanted lungs were removed for H&E staining.

[3] = system: Dexamethasone-induced muscle atrophy; assay: Dexamethasone induced muscle myopathy model (Example 8); assay type: in vivo, C57BL mice
Procedure: C57BL mice were given daily i.p. injection of 0.1 ml of vehicle or Dexamethasone (10 mg/kg/d) for 14 days. Some mice were also given BC-1261 (also referred to herein as compound 014) in drinking water with estimated dose of 0.5, 2 and 5 mg/kg/d. Mice were then sacrificed and (tibialis anterior)TA muscle were removed, photographed (A), weighted (C), processed for H&E staining (B) and protein immunoblotting (E).

[4] = system: Pseudomonas aeruginosa strain PA103; assay: Pseudomonas induced pneumonia, Compound 014 (Example 5); assay type: in vivo, mice; details: 30 μg or 150 μg IP
Procedure: Mice were administered either 30 μg or 150 μg of Compound 014 by IP injection, and these mice were then challenged with Pseudomonas aeruginosa strain PA103 (2.5×10^4 CFU/mouse, i.t.) for 18 hours. Mice were monitored on a FlexiVent to measure lung mechanics throughout the procedure. The mice were then sacrificed and lungs were lavaged with saline, harvested, and then homogenized. Lavage cells were processed with cytosin and stained with May-Grunwald and Geimsa, and H&E staining was performed on lung samples. Lavage protein, cell count, and cytokine secretion were measured. (n=4 mice/group, *P<0.05 versus PA103 versus Vehicle)

[5] = system: cigarette smoke induced chronic lung inflammation; assay: Smoke induced chronic lung inflammation (Example 6); assay type: in vivo, mice; details: cigarette smoke 5 weeks, single 100 ug dose i.p., 18 hours
Procedure: Mice were exposed to cigarette smoke for 5 weeks before a single 100 ug dose of Compound 014 was administered by i.p. injection. The mice were euthanized 18 hours later, and lungs were lavaged with saline, harvested, and then homogenized. Lavage protein, cell counts and cytokine secretion were measured. (n=3 mice/group, *P<0.05 versus control)

IMQ induced psoriasis = IMQ induced psoriasis model (Example 7); assay type: in vivo, BALB/c mice
Text: An objective scoring system was developed based on the clinical Psoriasis Area and Severity Index (PASI), except that for the mouse model the affected skin area is not taken into account in the overall score. Erythema and scaling were scored independently on a scale from 0 to 4: 0, none; 1, slight; 2, moderate; 3, marked; 4, very marked. The level of erythema was scored using a scoring table with red taints. At day 7, mice were euthanized and spleens were removed for weight measuring.
Female BALB/c mice at 8 to 11 wk of age received a daily topical dose of 62.5 mg of commercially available IMQ cream (5%) (Aldara; 3M Pharmaceuticals) on the shaved back and the right ear for 5 or 6 consecutive days, translating in a daily dose of 3.125 mg of the active compound. Control mice were treated similarly with a control vehicle cream (Vaseline Lanette cream; Fagron). BC-1261 (also referred to herein as compound 014) were either given in drinking water or applied topically daily. To score the severity of inflammation of the back skin, an objective scoring system was developed based on the clinical Psoriasis Area and Severity Index (PASI), except that for the mouse model the affected skin area is not taken into account in the overall score. Erythema and scaling were scored independently on a scale from 0 to 4: 0, none; 1, slight; 2, moderate; 3, marked; 4, very marked. The level of erythema was scored using a scoring table with red taints. At day 7, mice were euthanized and spleens were removed for weight measuring. Skin and ear sample were also collected for H&E staining and epidermis thickness were measured and graphed. n=5-10 per group, *p<0.05.

[6] = U937 monocytes, 16 hours, Trypan blue dead cells, read-out: LC50
[7] = therapeutic index (TI)=LC50/IC50
[8] = Dexamethasone 10 mg/kg/d i.p. 14 days
[9] = PA103, vs vehicle control infected mice, FIG. 9

Structure (SMILES)	IC50 (TNFα cytokine release)	CC50 at 16 h [1, 6]	TI (U937 monocytes; [7])	IC50 (IL1β)	other results
c1cn(-c2ccc(CNCCNCc3ccc(-n4ccnc4)cc3)cc2)cn1 [Compound 003]	0.7 µg/mL (≈ 1.88 µM)	130 µg/mL (≈ 349 µM)	142		
c1ccc(-c2ccc(CNCCNCc3ccc(-c4ccccc4)cc3)cc2)cc1 [Compound 015]	2 µg/mL (≈ 5.09 µM)	2 µg/mL (≈ 5.09 µM)	1	2 µg/mL (≈ 5.09 µM)	
c1cc(N2CCCC2)ccc1CNCCCCNCc1ccc(N2CCCC2)cc1 [Compound 006]	1 µg/mL (≈ 2.46 µM)	1 µg/mL (≈ 2.46 µM)	1		
c1cnn(-c2ccc(CNCCNCc3ccc(-n4cccn4)cc3)cc2)c1 [Compound 009]	1.4 µg/mL (≈ 3.76 µM)	80 µg/mL (≈ 215 µM)	57		
c1csc(-c2ccc(CNCCNCc3ccc(-c4nccs4)cc3)cc2)n1 [Compound 011]	0.4 µg/mL (≈ 0.984 µM)	8.5 µg/mL (≈ 20.9 µM)	21.3		
c1cnc(-c2ccc(CNCCNCc3ccc(-c4ncccn4)cc3)cc2)nc1 [Compound 014]	0.4 µg/mL (≈ 1.01 µM)	410 µg/mL (≈ 1030 µM)	1025	0.4 µg/mL (≈ 1.01 µM)	neutrophilia infiltrates induced by lung transplant rejection [2]: effectively ameliorates; transplanted lung H&E staining, infiltrates ([2]; vs vehicle group): completely protected lung; TRAF6 protein in TA muscle (immunoblotting) [3, 8]: degrading up-regulated TRAF6 protein; muscle wasting (cross sectional measurements, TA muscle H&E staining) [3, 8]: prevented; Dexamethasone-induced muscle atrophy ([3]; drinking water 0.5, 2 and 5 mg/kg/d, Dexamethasone 10 mg/kg/d i.p. 14 days): attenuates; dexamethasone-induced tibialis anterior muscle loss ([3]; even at 0.5 mg/kg/d in drinking water): significantly ameliorates; adverse effects of Pseudomonas on lung mechanics ([4]; PA103 2.5×10^4 CFU/mouse i.t., 18 hours): significantly ameliorated; lavage cell counts [4, 9]: reduced; lavage protein concentration [4, 9]: reduced; lavage pro-inflammatory cytokine levels ([4]; PA103, vs vehicle control infected mice, FIG. 9C): reduction; cell infiltrates (H&E staining) ([4]; PA103, vs vehicle control mice, FIG. 11): significantly reduced; neutrophils in May-Grunwald and Geimsa smears ([4]; PA103, vs vehicle control smears, FIG. 10): significantly fewer neutrophils; lavage cell counts ([5]; FIG. 12): reduced; lavage protein concentration ([5]; FIG. 12): reduced; lavage pro-inflammatory cytokine levels ([5]; FIG. 12C): reduction; ear thickness (IMQ induced psoriasis; IMQ model): reduces; gross appearance (IMQ induced psoriasis; IMQ model): reduces; spleen weight (IMQ induced psoriasis; IMQ model, day 7): reduces; psoriasis index (IMQ induced psoriasis; IMQ model, score based on PASI): reduces; IMQ induced psoriasis (IMQ induced psoriasis; in drinking water or applied topically daily, BALB/C mice, FIGS. 13-17): effectively ameliorates
c1csc(-c2ccc(CNCCNCc3ccc(-c4cccs4)cc3)cc2)c1 [Compound 012]	1.1 µg/mL (≈ 2.72 µM)	1.8 µg/mL (≈ 4.45 µM)	1.6		
c1cc(N2CCCCC2)ccc1CNCCNCc1ccc(N2CCCCC2)cc1 [Compound 004]	0.8 µg/mL (≈ 1.97 µM)	27 µg/mL (≈ 66.4 µM)	33	0.8 µg/mL (≈ 1.97 µM)	
c1ccc(-c2ccc(CNCCNCc3ccc(-c4ccccn4)cc3)cc2)nc1 [Compound 005]	0.9 µg/mL (≈ 2.28 µM)		96	0.9 µg/mL (≈ 2.28 µM)	
c1cc(N2CCCC2)ccc1CNCCCNCc1ccc(N2CCCC2)cc1 [Compound 007]	1.1 µg/mL (≈ 2.8 µM)	3.2 µg/mL (≈ 8.15 µM)	2.9		
c1ccc(CNCCNCc2ccccc2)cc1 [Benzathine, reference compound]	25 µg/mL (≈ 104 µM)			25 µg/mL (≈ 104 µM)	CC50 at 16 h [1]: 400 µg/mL (≈ 1660 µM); TI (U937 monocytes; human, 16 h): 16
